A melting point compilation (Tetko et al.; mined from patent text by program, amines drawn as free bases though some values may be those of a salt)

Row | SMILES | melting point [°C]
1 | CCOC(=O)N1CCC(=C2c3ccc(Cl)cc3OCc3cc(Br)cnc32)CC1 | 148 to 149
2 | COc1cc(Nc2c(C#N)cnc3cc(-c4cccc(CN5CCOCC5)c4)sc23)c(Cl)cc1Cl | 205 to 207
3 | CCOCC1OC(n2c(Cl)nc3cc(Cl)c(Cl)cc32)C(O)C1O (configuration not stated) | 88 to 90
4 | Cc1cccc(-n2nc(C)c(C)c2-c2cc3cnccc3s2)n1 | 108 to 109
5 | CC(C)OC(=O)c1cn(-c2cccnc2)cn1 | 130 to 131
6 | Cn1cncc1C(O)(c1ccc(Cl)cc1)c1ccc2c(c1)C(c1cccc(Cl)c1)SCc1nnnn1-2 (configuration not stated) | 217
7 | CCNn1nnnc1S | 90 to 91
8 | O=C(NCCO)/C(=C/c1ccc(C2CC2)cc1)NC(=O)c1ccc(OCCc2ccc3c(c2)OCO3)cc1 | 113 to 115
9 | CCNc1nc(Oc2ccccc2)nc2nc(-c3ccco3)nn12 | 127 to 129
10 | CCOC(=O)c1cc2c(Cl)ccc3c2n1CCCC=C3 | 89 to 90
11 | CNc1nc(Cl)cc(Cl)n1 | 157 to 158
12 | O=C(N1CCCC1)N1CCN(Cc2ccc3c(c2)-c2[nH]nc(-c4ccsc4)c2C3)CC1 | 214 to 216
13 | O=C(CC1CSCCC1=O)c1ccc(Cl)cc1 (configuration not stated) | 78 to 81
14 | Nc1ccc(F)cc1C(=O)c1ccccc1 | 112 to 113
15 | COc1cccc(CC(=O)Nc2cc(Cl)c(Cl)cc2[N+](=O)[O-])c1 | 122 to 124
16 | N#Cc1ccc(-c2c[nH]nc2C(F)(F)F)cc1SCC(F)(F)F | 65 to 67
17 | CNC(=O)n1cnc(C)c1Cl | 94.1 to 94.4
18 | NC(=O)N(O)CCNC(=O)c1cc2c(Cl)cccc2s1 | 181 to 184
19 | Cn1nnnc1CC(=O)c1ccc(C(F)(F)F)cc1N | 200 to 201
20 | CC(C)(C)NS(=O)(=O)c1ccc2c(NS(=O)(=O)N3CCOCC3)cccc2c1O | 105 to 110
21 | CC(C)c1[nH]nc2c1C(=O)c1c(NC(=O)CN3CCC(CN)CC3)cccc1-2 | 218 to 220
22 | COc1cc2ncnc(N3CCN(C(=S)Nc4ccc(CNC(=O)OC(C)(C)C)cc4)CC3)c2cc1OC | 123 to 126
23 | Fc1ccc(C2CC(n3ccnc3)c3ccccc3N2)cc1 (configuration not stated) | 168 to 170
24 | Cc1cc(=O)[nH]c2ccc(Br)cc12 | 292 to 299

Row | SMILES | melting point [°C]
25 | CCC(C#N)c1ccc(Cl)c2nc3n(c12)CCCN3c1ccc(Cl)cc1Cl (configuration not stated) | 220 to 221
26 | CCCCCCCCCCCCCCCC[C@]1(CO)CC(=O)N1 | 82
27 | O=C(OCc1ccc(OCCc2ccc(Cl)cc2)cc1)c1cccnc1 | 77 to 78
28 | O=[N+]([O-])c1cc(CN2CCN(C(c3ccccc3)c3ccccc3)CC2)ccc1Cl | 102
29 | CN(C)c1ccc(OCc2ccncc2)cc1 | 123 to 125
30 | Nc1ccc(Oc2ccc(C(=O)O)c(O)c2)cc1 | 187 to 188
31 | CCCCOc1nc(N)c2nc(OC)n(CCCCNCCOC)c2n1 | 99 to 100
32 | CC(=O)c1ccc(N2CCN(c3cccc(C)c3)CC2)nn1 | 136
33 | CCCCc1ncc(/C=C(\Cc2cccs2)C(=O)O)n1Cc1ccccc1C#N | 210 to 212
34 | CCn1ncc2c1ncc1c(=O)n(C)c3ncnn3c12 | 208 to 210
35 | O=C(O)c1ccc(O)c(C(O)C(Cl)Cl)c1 (configuration not stated) | 214 to 215
36 | CC(=O)Nc1ccc2[nH]cc(CC#N)c2c1 | 172 to 175
37 | CCOc1ccc(C(C)=O)cc1C(=O)OC | 50 to 55
38 | CCO/C=C1\SC(=S)N(C)C1=O | 110 to 111
39 | CCCNC(=O)N1N=C(c2ccc(N)cc2)c2cc(Cl)ccc2CC1C (configuration not stated) | 88 to 90
40 | Cc1cc(N)cc(C)c1S(=O)(=O)C[N+](=O)[O-] | 132 to 133
41 | N#Cc1ccc2oc(Cc3cc4cc(C#N)ccc4o3)cc2c1 | 173 to 174
42 | COc1ccc(Nc2nc(Nc3ccc(OC)c(F)c3)nc(OCC3CCCCC3)n2)cc1F | 181
43 | CC(C)CNC1NC(=O)N(c2cccs2)C(=O)N1 | 265 to 268
44 | Fc1ccc(-n2c3c(c4cc(F)ccc42)CN(CCc2ccc4ccccc4n2)CC3)cc1 | 201 to 203
45 | COC(=O)CNC(=O)c1cc2cc(Cl)ccc2[nH]1 | 252 to 254
46 | COc1ccc(C(=O)Nc2ccc(-n3nc(C(F)(F)F)cc3C(F)(F)F)cc2)c(Cl)c1 | 140 to 143
47 | CCCN(CCC)S(=O)(=O)c1cccc(C(=O)Nc2cccc(Br)c2)c1 | 105 to 107

Second part, the compound after the results:

Row | melting point [°C] | SMILES
48 | 80.2 to 82.9 | c1ccc(-c2ccc(OCC3CO3)cc2)cc1 (configuration not stated)
49 | 198 to 201 | CCCN(CCc1ccccc1)CCc1cccc2[nH]c(=S)[nH]c12
50 | 124 to 125 | O=C(c1cccc(Cl)c1)c1ccccc1Nc1ncccc1[N+](=O)[O-]
51 | 218 to 220 | CN(Cc1cccc2c1CN(C1CCC(=O)NC1=O)C2=O)C(=O)Nc1cccc(F)c1 (configuration not stated)
52 | 137 to 138 | COc1ccc(S(=O)(=O)Nc2ccccc2-c2ccc(F)cc2C(C)O)cc1 (configuration not stated)
53 | 169 to 171 | Cc1cccc(C(=O)n2nc(Nc3cccc(OCC(=O)N4CCNCC4)c3)nc2N)c1
54 | 216 | COC(=O)C1=C(C)NC(C=O)=C(C(=O)OC)C1c1cccc2c(=O)c(C)c(-c3ccccc3)oc12 (configuration not stated)
55 | 125 to 127 | CCN(CC)c1ccc(Cn2nc(-c3ccccc3O)nc2-c2ccccc2O)cc1
56 | 106 to 107 | COC(=O)c1ccc(OCc2ccc3ccccc3n2)cc1C1(c2ccccc2)CC2CCC1C2 (configuration not stated)
57 | 299 | COc1ccc(-c2[nH]nc3c2C(=O)c2c(NC(=O)Cc4ccc(Cl)c(Cl)c4)cccc2-3)cc1
58 | 81 to 82 | COC(=O)CN1C(=O)C(C(C)C)Sc2ccccc21 (configuration not stated)
59 | 216 to 218 | COc1ccc2c(c1)C(=O)c1c-2nc2ccccc2c1Cl
60 | 152 | COC(=O)C1=C(C)NC(C)=C(C(=O)OCc2ccc(OC)cc2)C1c1ccccc1[N+](=O)[O-] (configuration not stated)
61 | 84 to 86 | CC(C)(C)OC(=O)N1COC(=O)[C@@H]1Cc1ccccc1
62 | 125 to 126 | CC(C)(COc1ccc(O)c(C(N)=O)c1)NCC(O)COc1ccccc1C#N (configuration not stated)
63 | 99 to 100 | CN(C)S(=O)(=O)c1ccc(Oc2ccc(S(=O)(=O)c3ccccc3)cc2)cc1
64 | 119 to 120 | CON(C)C(=O)c1c(-c2ccc(Cl)cc2)nsc1-c1ccccc1
65 | 126 to 128 | CNc1nc(C(C)c2ccc(-c3ccccc3)c(F)c2)c(C=O)s1 (configuration not stated)
66 | 152 to 154 | O=C(O)CCCCC=Cc1cc(-c2ccccc2)c2ccccc2n1
67 | 113 to 115 | COC(=O)C1Cc2c([nH]c3ccccc23)C(c2ccccc2Br)N1C(=O)CCl (configuration not stated)
68 | 155 | COc1cc(-c2ccco2)c2oc(-c3ccc(OC)c(F)c3)nc2c1
69 | 269 to 272 | Cn1cc(-c2ncc(-c3ccc4cc(OCC(=O)O)ccc4c3)o2)c2ccccc21
70 | 119 to 122 | CCCCc1nn(-c2cc(NC(=O)CC)ccc2C(F)(F)F)c(=O)n1Cc1ccc(-c2ccccc2S(=O)(=O)NC(=O)c2ccccc2F)cc1F
71 | 136 to 138 | CC1=C2C(=C(c3ccccc3Cl)N=CC(=O)N2C)NO1
72 | 179 | Cc1nc(-c2ccccc2)sc1C(=O)NCc1ccc(OC(C)(C)C(=O)O)cc1
